{"source": "patent US9302999B2", "about": "“Substituted triazoles as herbicides” (E. I. DU PONT DE NEMOURS AND COMPANY, priority 2012, dated 2016)", "type_in_all_cases": "in vivo", "key": {"[1]": {"test_system": "morningglory (Ipomoea spp.)", "assay": "Test A pre-/postemergence: morningglory", "conditions": "Ipomoea, 240 h; for pest or weed control at 125 g/ha: 125 g ai/ha; for pest or weed control at 500 g/ha: 500 g ai/ha", "summary_of_the_method": "(§1)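 Rating scale 0–100 (100 = complete control), visual, ~10 days after application in the greenhouse. Applications: preemergence directed soil spray; postemergence at 1–2 leaves.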"}, "soybean (Glycine max)": {"test_system": "soybean (Glycine max)", "assay": "Test C pre-/postemergence: soybean", "summary_of_the_method": "(§2)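 Visual injury scored 0–100 (100 = complete control) against untreated controls after 13–15 greenhouse days. Surfactant-containing solvent formulations applied either to soil after sowing (loam/sand) or over 1- to 4-leaf plants, 2–18 cm tall.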"}, "[2]": {"test_system": "blackgrass (Alopecurus myosuroides)", "assay": "Test C pre-/postemergence: blackgrass", "summary_of_the_method": "as §2"}, "[3]": {"test_system": "barnyardgrass (Echinochloa crus-galli)", "assay": "Test A pre-/postemergence: barnyardgrass", "conditions": "Echinochloa crus-galli, 240 h; for pest or weed control at 125 g/ha: 125 g ai/ha; for pest or weed control at 500 g/ha: 500 g ai/ha", "summary_of_the_method": "as §1"}, "[4]": {"test_system": "johnsongrass (Sorghum halepense)", "assay": "Test C pre-/postemergence: johnsongrass", "summary_of_the_method": "as §2"}, "[5]": {"test_system": "large crabgrass (Digitaria sanguinalis)", "assay": "Test C pre-/postemergence: large crabgrass", "summary_of_the_method": "as §2"}, "[6]": {"test_system": "pigweed (Amaranthus retroflexus)", "assay": "Test C pre-/postemergence: pigweed", "summary_of_the_method": "as §2"}, "[7]": {"test_system": "wheat (Triticum aestivum)", "assay": "Test A pre-/postemergence: wheat", "conditions": "Triticum aestivum, 240 h; for plant injury at 125 g/ha: 125 g ai/ha; for plant injury at 500 g/ha: 500 g ai/ha", "summary_of_the_method": "as §1"}, "corn (Zea mays)": {"test_system": "corn (Zea mays)", "assay": "Test A pre-/postemergence: corn", "conditions": "Zea mays, 240 h; for Corn plant response rating (crop injury, 0 = no effect, 100 = complete kill) at 125 g/ha: 125 g ai/ha", "summary_of_the_method": "as §1"}, "[8]": {"test_system": "nutsedge, yellow (yellow nutsedge, Cyperus esculentus)", "assay": "Test C pre-/postemergence: nutsedge, yellow", "summary_of_the_method": "as §2"}, "[9]": {"test_system": "ryegrass, Italian (Italian ryegrass, Lolium multiflorum)", "assay": "Test C pre-/postemergence: ryegrass, Italian", "summary_of_the_method": "as §2"}, "[10]": {"conditions": "Postemergence, 31 g ai/ha, scale 0 to 100 (0 no effect, 100 complete control)"}, "[11]": {"conditions": "Postemergence, 62 g ai/ha, scale 0 to 100 (0 no effect, 100 complete control)"}, "[12]": {"conditions": "Postemergence, 250 g ai/ha, scale 0 to 100"}, "[13]": {"conditions": "Preemergence, 31 g ai/ha, scale 0 (no effect) to 100 (complete control)"}, "[14]": {"conditions": "Preemergence, 62 g ai/ha, scale of 0 to 100, 0 is no effect, 100 is complete control"}, "[15]": {"conditions": "Preemergence, 125 g ai/ha, scale 0 to 100, 0 no effect, 100 complete control"}, "[16]": {"conditions": "Preemergence, 250 g ai/ha, scale 0 to 100, 0 no effect, 100 complete control"}, "[17]": {"conditions": "Postemergence, 125 g ai/ha, scale 0 to 100, 0 no effect, 100 complete control"}}, "note": "Where two headings read alike, the source gives them in different places.", "data": [{"compound": "CCOc1nn(-c2ccc(C(F)(F)F)cc2)nc1Cc1ccnc(C(F)(F)F)c1", "note": "[Compound 164, 4-[[5-ethoxy-2-[4-(trifluoromethyl)phenyl]-2H-1,2,3-triazol-4-yl]methyl]-2-(trifluoromethyl)pyridine]", "values": [{"measurement": "pest or weed control at 125 g/ha", "setting": "[1]; post-emergence, Postemergence, 0 to 100 scale, 0 is no effect, 100 is complete control, read-out: Plant response rating, Morningglory", "value": 100, "unit": "%"}, {"measurement": "pest or weed control at 500 g/ha", "setting": "[1]; post-emergence, Postemergence, 0 to 100 scale, 0 is no effect, 100 is complete control, read-out: Morningglory plant response rating", "value": 100, "unit": "%"}, {"measurement": "pest or weed control at 125 g/ha", "setting": "[1]; pre-emergence, Preemergence, 0 to 100 scale where 0 is no effect and 100 is complete control, read-out: Plant response rating, Morningglory", "value": 80, "unit": "%"}, {"measurement": "pest or weed control at 500 g/ha", "setting": "[1]; pre-emergence, Preemergence, 0 to 100 scale (0 no effect, 100 complete control), read-out: Plant response rating, Morningglory", "value": 90, "unit": "%"}, {"measurement": "Plant response rating, Soybean", "setting": "soybean (Glycine max); [10]", "value": 30}, {"measurement": "Plant response rating, Soybean", "setting": "soybean (Glycine max); [11]", "value": 40}, {"measurement": "Plant response rating, Soybean", "setting": "soybean (Glycine max); [12]", "value": 50}, {"measurement": "Plant response rating, Soybean", "setting": "soybean (Glycine max); [13]", "value": 0}, {"measurement": "Plant response rating, Soybean", "setting": "soybean (Glycine max); [14]", "value": 0}, {"measurement": "Plant response rating, Soybean", "setting": "soybean (Glycine max); [15]", "value": 5}, {"measurement": "Plant response rating, Soybean", "setting": "soybean (Glycine max); [16]", "value": 5}, {"measurement": "Plant response rating, Blackgrass", "setting": "[2]; [10]", "value": 5}, {"measurement": "Plant response rating, Blackgrass", "setting": "[2]; [11]", "value": 5}, {"measurement": "Plant response rating, Blackgrass", "setting": "[2]; [17]", "value": 15}, {"measurement": "Plant response rating, Blackgrass", "setting": "[2]; [12]", "value": 15}, {"measurement": "Plant response rating, Blackgrass", "setting": "[2]; [13]", "value": 5}, {"measurement": "Plant response rating, Blackgrass", "setting": "[2]; [14]", "value": 10}, {"measurement": "Plant response rating, Blackgrass", "setting": "[2]; [15]", "value": 60}, {"measurement": "Plant response rating, Blackgrass", "setting": "[2]; [16]", "value": 70}, {"measurement": "pest or weed control at 125 g/ha", "setting": "[3]; post-emergence, Postemergence, 0 to 100 scale, 0 is no effect, 100 is complete control, read-out: Plant response rating, Barnyardgrass", "value": 90, "unit": "%"}, {"measurement": "pest or weed control at 500 g/ha", "setting": "[3]; post-emergence, Postemergence, 0 to 100 scale, 0 is no effect, 100 is complete control, read-out: Barnyardgrass plant response rating", "value": 90, "unit": "%"}, {"measurement": "pest or weed control at 125 g/ha", "setting": "[3]; pre-emergence, Preemergence, 0 to 100 scale where 0 is no effect and 100 is complete control, read-out: Plant response rating, Barnyardgrass", "value": 90, "unit": "%"}, {"measurement": "pest or weed control at 500 g/ha", "setting": "[3]; pre-emergence, Preemergence, 0 to 100 scale (0 no effect, 100 complete control), read-out: Plant response rating, Barnyardgrass", "value": 100, "unit": "%"}, {"measurement": "Plant response rating, Johnsongrass", "setting": "[4]; [10]", "value": 10}, {"measurement": "Plant response rating, Johnsongrass", "setting": "[4]; [11]", "value": 10}, {"measurement": "Plant response rating, Johnsongrass", "setting": "[4]; [17]", "value": 10}, {"measurement": "Plant response rating, Johnsongrass", "setting": "[4]; [12]", "value": 10}, {"measurement": "Plant response rating, Johnsongrass", "setting": "[4]; [13]", "value": 5}, {"measurement": "Plant response rating, Johnsongrass", "setting": "[4]; [14]", "value": 15}, {"measurement": "Plant response rating, Johnsongrass", "setting": "[4]; [15]", "value": 20}, {"measurement": "Plant response rating, Johnsongrass", "setting": "[4]; [16]", "value": 40}, {"measurement": "Plant response rating, Crabgrass, Large", "setting": "[5]; [10]", "value": 5}, {"measurement": "Plant response rating, Crabgrass, Large", "setting": "[5]; [11]", "value": 5}, {"measurement": "Plant response rating, Crabgrass, Large", "setting": "[5]; [17]", "value": 10}, {"measurement": "Plant response rating, Crabgrass, Large", "setting": "[5]; [12]", "value": 10}, {"measurement": "Plant response rating, Crabgrass, Large", "setting": "[5]; [13]", "value": 70}, {"measurement": "Plant response rating, Crabgrass, Large", "setting": "[5]; [14]", "value": 75}, {"measurement": "Plant response rating, Crabgrass, Large", "setting": "[5]; [15]", "value": 98}, {"measurement": "Plant response rating, Crabgrass, Large", "setting": "[5]; [16]", "value": 100}, {"measurement": "Plant response rating, Pigweed", "setting": "[6]; [10]", "value": 50}, {"measurement": "Plant response rating, Pigweed", "setting": "[6]; [11]", "value": 75}, {"measurement": "Plant response rating, Pigweed", "setting": "[6]; [17]", "value": 80}, {"measurement": "Plant response rating, Pigweed", "setting": "[6]; [12]", "value": 80}, {"measurement": "Plant response rating, Pigweed", "setting": "[6]; [13]", "value": 10}, {"measurement": "Plant response rating, Pigweed", "setting": "[6]; [14]", "value": 35}, {"measurement": "Plant response rating, Pigweed", "setting": "[6]; [15]", "value": 90}, {"measurement": "Plant response rating, Pigweed", "setting": "[6]; [16]", "value": 100}, {"measurement": "plant injury at 125 g/ha", "setting": "[7]; post-emergence, Postemergence, 0 to 100 scale, 0 is no effect, 100 is complete control, read-out: Plant response rating, Wheat", "value": 50, "unit": "%"}, {"measurement": "plant injury at 500 g/ha", "setting": "[7]; post-emergence, Postemergence, 0 to 100 scale, 0 is no effect, 100 is complete control, read-out: Wheat plant response rating", "value": 60, "unit": "%"}, {"measurement": "plant injury at 125 g/ha", "setting": "[7]; pre-emergence, Preemergence, 0 to 100 scale where 0 is no effect and 100 is complete control, read-out: Plant response rating, Wheat", "value": 50, "unit": "%"}, {"measurement": "plant injury at 500 g/ha", "setting": "[7]; pre-emergence, Preemergence, 0 to 100 scale (0 no effect, 100 complete control), read-out: Plant response rating, Wheat", "value": 60, "unit": "%"}, {"measurement": "Corn plant response rating (crop injury, 0 = no effect, 100 = complete kill) at 125 g/ha", "setting": "corn (Zea mays); post-emergence, Postemergence, 0 to 100 scale, 0 is no effect, 100 is complete control", "value": 30, "unit": "%"}, {"measurement": "plant injury at 500 g/ha", "setting": "corn (Zea mays); post-emergence, Postemergence, 500 g ai/ha, 0 to 100 scale, 0 is no effect, 100 is complete control, read-out: Corn plant response rating", "value": 40, "unit": "%"}, {"measurement": "Corn plant response rating (crop injury, 0 = no effect, 100 = complete kill) at 125 g/ha", "setting": "corn (Zea mays); pre-emergence, Preemergence, 0 to 100 scale where 0 is no effect and 100 is complete control", "value": 30, "unit": "%"}, {"measurement": "Corn plant response rating (crop injury, 0 = no effect, 100 = complete kill) at 500 g/ha", "setting": "corn (Zea mays); pre-emergence, Preemergence, 500 g ai/ha, 0 to 100 scale (0 no effect, 100 complete control)", "value": 30, "unit": "%"}, {"measurement": "Plant response rating, Nutsedge, Yellow", "setting": "[8]; [10]", "value": 0}, {"measurement": "Plant response rating, Nutsedge, Yellow", "setting": "[8]; [11]", "value": 5}, {"measurement": "Plant response rating, Nutsedge, Yellow", "setting": "[8]; [17]", "value": 5}, {"measurement": "Plant response rating, Nutsedge, Yellow", "setting": "[8]; [12]", "value": 10}, {"measurement": "Plant response rating, Nutsedge, Yellow", "setting": "[8]; [13]", "value": 0}, {"measurement": "Plant response rating, Nutsedge, Yellow", "setting": "[8]; [14]", "value": 0}, {"measurement": "Plant response rating, Nutsedge, Yellow", "setting": "[8]; [15]", "value": 0}, {"measurement": "Plant response rating, Nutsedge, Yellow", "setting": "[8]; [16]", "value": 0}, {"measurement": "Plant response rating, Ryegrass, Italian", "setting": "[9]; [10]", "value": 5}, {"measurement": "Plant response rating, Ryegrass, Italian", "setting": "[9]; [11]", "value": 5}, {"measurement": "Plant response rating, Ryegrass, Italian", "setting": "[9]; [17]", "value": 5}, {"measurement": "Plant response rating, Ryegrass, Italian", "setting": "[9]; [12]", "value": 5}, {"measurement": "Plant response rating, Ryegrass, Italian", "setting": "[9]; [13]", "value": 5}, {"measurement": "Plant response rating, Ryegrass, Italian", "setting": "[9]; [14]", "value": 10}, {"measurement": "Plant response rating, Ryegrass, Italian", "setting": "[9]; [15]", "value": 55}, {"measurement": "Plant response rating, Ryegrass, Italian", "setting": "[9]; [16]", "value": 75}]}]}
